Patent publication US20220402925A1, “COMPOUNDS AND METHODS FOR THE TREATMENT OF CYSTIC FIBROSIS” (Flatley Discovery Lab, LLC, priority 2019, published 2022)

Target: T1, F508del CFTR (Homo sapiens, UniProt P13569, DEL508-508)
T1 construct: Primary CF airway epithelial cells were obtained from the UNC Cystic Fibrosis Tissue Procurement and Cell Culture Core; host or cells: primary CF airway epithelial cells
Assay: Equivalent current assay in primary CF airway epithelial cells (Corrector Activity, NAUC normalized to 3 μM VX809)
Format: cell-based
Details: NAUC as % of positive control (VX-809)
Outline: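 Differentiated primary CF airway cells treated basolaterally 24 h at 37° C with compound (0.1% DMSO). Equivalent current recorded after 5 μM benzamil, stimulation with 10 μM forskolin plus 1 μM VX-770 or 3 μM FDL176, and block by 20 μM CFTR-172; vehicle-subtracted AUC normalized to 3 μM VX809; EC50 from sigmoid fit, Hill slope 1.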

T1 sequence (P13569 with tags, fused parts or gaps DEL508-508): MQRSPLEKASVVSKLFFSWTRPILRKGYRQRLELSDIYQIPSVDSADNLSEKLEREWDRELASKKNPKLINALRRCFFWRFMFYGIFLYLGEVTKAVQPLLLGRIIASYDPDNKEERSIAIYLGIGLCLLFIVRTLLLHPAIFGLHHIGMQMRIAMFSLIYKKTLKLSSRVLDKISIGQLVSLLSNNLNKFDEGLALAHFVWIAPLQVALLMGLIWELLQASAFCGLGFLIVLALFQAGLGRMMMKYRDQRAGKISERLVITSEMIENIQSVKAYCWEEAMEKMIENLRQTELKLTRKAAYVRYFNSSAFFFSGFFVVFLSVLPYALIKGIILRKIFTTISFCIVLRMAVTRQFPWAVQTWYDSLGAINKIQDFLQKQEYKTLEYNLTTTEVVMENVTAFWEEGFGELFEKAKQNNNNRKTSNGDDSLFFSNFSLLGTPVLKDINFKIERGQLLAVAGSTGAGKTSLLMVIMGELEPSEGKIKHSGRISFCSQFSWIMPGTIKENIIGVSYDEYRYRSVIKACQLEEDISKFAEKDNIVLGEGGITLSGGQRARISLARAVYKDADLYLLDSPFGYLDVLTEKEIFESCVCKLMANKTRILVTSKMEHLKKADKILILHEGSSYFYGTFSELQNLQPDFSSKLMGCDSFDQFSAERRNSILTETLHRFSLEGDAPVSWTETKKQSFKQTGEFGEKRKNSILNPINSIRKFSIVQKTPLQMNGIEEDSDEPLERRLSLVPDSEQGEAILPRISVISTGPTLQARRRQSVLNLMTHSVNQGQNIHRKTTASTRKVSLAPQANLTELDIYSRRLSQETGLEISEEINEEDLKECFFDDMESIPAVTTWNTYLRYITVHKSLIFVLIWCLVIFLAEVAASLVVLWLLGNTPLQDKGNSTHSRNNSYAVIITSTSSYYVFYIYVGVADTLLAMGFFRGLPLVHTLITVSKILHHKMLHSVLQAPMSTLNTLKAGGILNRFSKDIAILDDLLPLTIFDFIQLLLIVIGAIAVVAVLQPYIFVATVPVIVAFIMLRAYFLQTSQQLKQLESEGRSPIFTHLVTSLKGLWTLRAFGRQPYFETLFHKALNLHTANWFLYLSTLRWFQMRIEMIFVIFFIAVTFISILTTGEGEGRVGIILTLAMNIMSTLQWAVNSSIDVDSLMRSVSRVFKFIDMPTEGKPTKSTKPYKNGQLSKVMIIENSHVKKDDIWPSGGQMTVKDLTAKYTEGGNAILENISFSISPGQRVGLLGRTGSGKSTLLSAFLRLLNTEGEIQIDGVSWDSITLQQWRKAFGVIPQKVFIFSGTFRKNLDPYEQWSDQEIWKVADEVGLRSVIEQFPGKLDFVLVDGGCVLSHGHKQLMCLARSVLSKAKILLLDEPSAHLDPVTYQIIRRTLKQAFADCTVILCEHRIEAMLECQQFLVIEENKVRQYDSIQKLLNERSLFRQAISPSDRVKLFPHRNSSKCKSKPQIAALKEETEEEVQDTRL

SMILES | Corr Activity (NAUC)
O=C(Cn1nc(-c2cccc(F)c2)c2[nH]cnc2c1=O)N1CCCc2c1ccc1c2OC(F)(F)O1 [Example 373] | +++ (NAUC>70% of positive control)
O=C(Cn1nc(-c2cccc(Cl)c2)c2[nH]cnc2c1=O)N1CCCc2c1ccc1c2OC(F)(F)O1 [Example 374] | +++ (NAUC>70% of positive control)
N#Cc1cccc(-c2nn(CC(=O)N3CCCc4c3ccc3c4OC(F)(F)O3)c(=O)c3nc[nH]c23)c1 [Example 375] | +++ (NAUC>70% of positive control)
CC(C)COc1cc(F)cc(-c2nn(CC(=O)N(c3ccc4c(c3)OC(F)(F)O4)C3CC3)c(=O)c3nc[nH]c23)c1 [Example 384] | ++ (NAUC 70-40% of positive control)
COC(=O)c1cc(Cl)cc(-c2nn(CC(=O)N(c3ccc4c(c3)OC(F)(F)O4)C3CC3)c(=O)c3nc[nH]c23)c1 [Example 390] | + (NAUC<40% of positive control)
O=C(Cn1nc(-c2cc(Cl)cc(OCc3ccccc3)c2)c2[nH]cnc2c1=O)N(c1ccc2c(c1)OC(F)(F)O2)C1CC1 [Example 396] | +++ (NAUC>70% of positive control)
COCCOc1cc(Cl)cc(-c2nn(CC(=O)N(c3ccc4c(c3)OC(F)(F)O4)C3CC3)c(=O)c3nc[nH]c23)c1 [Example 399] | ++ (NAUC 70-40% of positive control)
O=C(Cn1nc(-c2cc(Cl)cc(N3CCCC3)c2)c2[nH]cnc2c1=O)N(c1ccc2c(c1)OC(F)(F)O2)C1CC1 [Example 400] | +++ (NAUC>70% of positive control)
O=C(Cn1nc(-c2cc(Cl)cc(CO)c2)c2[nH]cnc2c1=O)N(c1ccc2c(c1)OC(F)(F)O2)C1CC1 [Example 405] | + (NAUC<40% of positive control)
COc1ccc2cc(-c3nn(CC(=O)N(c4ccc5c(c4)OC(F)(F)O5)C4CC4)c(=O)c4nc[nH]c34)ccc2c1 [Example 412] | ++ (NAUC 70-40% of positive control)
O=C(Cn1nc(-c2ccc3c(ccn3S(=O)(=O)c3ccccc3)c2)c2[nH]cnc2c1=O)N(c1ccc2c(c1)OC(F)(F)O2)C1CC1 [Example 423] | + (NAUC<40% of positive control)
Cn1c2ccccc2c2cc(-c3nn(CC(=O)N(c4ccc5c(c4)OC(F)(F)O5)C4CC4)c(=O)c4nc[nH]c34)ccc21 [Example 425] | + (NAUC<40% of positive control)
O=C1Cc2ccc(-c3nn(CC(=O)N(c4ccc5c(c4)OC(F)(F)O5)C4CC4)c(=O)c4nc[nH]c34)cc2N1 [Example 426] | + (NAUC<40% of positive control)
CC(C)n1ncc2cc(-c3nn(CC(=O)N(c4ccc5c(c4)OC(F)(F)O5)C4CC4)c(=O)c4nc[nH]c34)ccc21 [Example 430] | + (NAUC<40% of positive control)
CN1C(=O)Cc2ccc(-c3nn(CC(=O)N(c4ccc5c(c4)OC(F)(F)O5)C4CC4)c(=O)c4nc[nH]c34)cc21 [Example 432] | + (NAUC<40% of positive control)
O=C(Cn1nc(-c2ccc3c(c2)ncn3-c2ccccc2)c2[nH]cnc2c1=O)N(c1ccc2c(c1)OC(F)(F)O2)C1CC1 [Example 433] | + (NAUC<40% of positive control)
CC(C)Oc1ccc(-c2nn(CC(=O)N(c3ccc4c(c3)OC(F)(F)O4)C3CC3)c(=O)c3nc[nH]c23)cc1Cl [Example 446] | +++ (NAUC>70% of positive control)
O=C(Cn1nc(-c2ccc(OCC(F)(F)F)c(F)c2)c2[nH]cnc2c1=O)N(c1ccc2c(c1)OC(F)(F)O2)C1CC1 [Example 457] | + (NAUC<40% of positive control)
COc1ccc(-c2nn(CC(=O)N(c3ccc4c(c3)OC(F)(F)O4)C3CC3)c(=O)c3nc[nH]c23)cc1C#N [Example 464] | +++ (NAUC>70% of positive control)
O=C(Cn1nc(-c2ccc(OCC3CC3)c(Cl)c2)c2[nH]cnc2c1=O)N(c1ccc2c(c1)OC(F)(F)O2)C1CC1 [Example 465] | ++ (NAUC 70-40% of positive control)
N#Cc1cc(-c2nn(CC(=O)N(c3ccc4c(c3)OC(F)(F)O4)C3CC3)c(=O)c3nc[nH]c23)ccc1N1CCCC1 [Example 470] | +++ (NAUC>70% of positive control)
CN(C)c1ccc(-c2nn(CC(=O)N(c3ccc4c(c3)OC(F)(F)O4)C3CC3)c(=O)c3nc[nH]c23)cc1C#N [Example 486] | +++ (NAUC>70% of positive control)
N#Cc1cc(-c2nn(CC(=O)N(c3ccc4c(c3)OC(F)(F)O4)C3CC3)c(=O)c3nc[nH]c23)ccc1N1CCC1 [Example 487] | ++ (NAUC 70-40% of positive control)
N#Cc1cc(-c2nn(CC(=O)N(c3ccc4c(c3)OC(F)(F)O4)C3CC3)c(=O)c3nc[nH]c23)ccc1N1CCC(F)C1 (centres unmarked) [Example 488] | +++ (NAUC>70% of positive control)
N#Cc1cc(-c2nn(CC(=O)N(c3ccc4c(c3)OC(F)(F)O4)C3CC3)c(=O)c3nc[nH]c23)ccc1N1CCC(F)(F)C1 [Example 489] | +++ (NAUC>70% of positive control)
O=C(Cn1nc(-c2ccc(N3CCCC3)cc2)c2[nH]cnc2c1=O)N(c1ccc2c(c1)OC(F)(F)O2)C1CC1 [Example 490] | + (NAUC<40% of positive control)

Next, values leading:

Corr Activity (NAUC) | SMILES
+++ (NAUC>70% of positive control) | N#Cc1cccc(-c2nn(CC(=O)N(c3ccc4c(c3)OC(F)(F)O4)C3CC3)c(=O)c3nc[nH]c23)c1 [Example 372]
+ (NAUC<40% of positive control) | CC(C)Oc1cc(-c2nn(CC(=O)N(c3ccc4c(c3)OC(F)(F)O4)C3CC3)c(=O)c3nc[nH]c23)cc(C(F)(F)F)c1 [Example 377]
++ (NAUC 70-40% of positive control) | O=C(Cn1nc(-c2cc(F)cc(Cl)c2)c2[nH]cnc2c1=O)N(c1ccc2c(c1)OC(F)(F)O2)C1CC1 [Example 378]
++ (NAUC 70-40% of positive control) | COc1cc(Cl)cc(-c2nn(CC(=O)N(c3ccc4c(c3)OC(F)(F)O4)C3CC3)c(=O)c3nc[nH]c23)c1 [Example 379]
++ (NAUC 70-40% of positive control) | O=C(Cn1nc(-c2cc(F)cc(F)c2)c2[nH]cnc2c1=O)N(c1ccc2c(c1)OC(F)(F)O2)C1CC1 [Example 380]
+ (NAUC<40% of positive control) | COc1cc(OC)cc(-c2nn(CC(=O)N(c3ccc4c(c3)OC(F)(F)O4)C3CC3)c(=O)c3nc[nH]c23)c1 [Example 381]
+ (NAUC<40% of positive control) | O=C(Cn1nc(-c2cc(C(F)(F)F)cc(C(F)(F)F)c2)c2[nH]cnc2c1=O)N(c1ccc2c(c1)OC(F)(F)O2)C1CC1 [Example 382]
++ (NAUC 70-40% of positive control) | COc1cc(F)cc(-c2nn(CC(=O)N(c3ccc4c(c3)OC(F)(F)O4)C3CC3)c(=O)c3nc[nH]c23)c1 [Example 383]
++ (NAUC 70-40% of positive control) | Cc1cc(F)cc(-c2nn(CC(=O)N(c3ccc4c(c3)OC(F)(F)O4)C3CC3)c(=O)c3nc[nH]c23)c1 [Example 385]
+ (NAUC<40% of positive control) | COc1cc(-c2nn(CC(=O)N(c3ccc4c(c3)OC(F)(F)O4)C3CC3)c(=O)c3nc[nH]c23)cc(C(F)(F)F)c1 [Example 387]
++ (NAUC 70-40% of positive control) | O=C(Cn1nc(-c2cc(F)cc(C(F)(F)F)c2)c2[nH]cnc2c1=O)N(c1ccc2c(c1)OC(F)(F)O2)C1CC1 [Example 391]
+++ (NAUC>70% of positive control) | Cc1cc(Cl)cc(-c2nn(CC(=O)N(c3ccc4c(c3)OC(F)(F)O4)C3CC3)c(=O)c3nc[nH]c23)c1 [Example 392]
++ (NAUC 70-40% of positive control) | O=C(Cn1nc(-c2cc(F)cc(OCC(F)(F)F)c2)c2[nH]cnc2c1=O)N(c1ccc2c(c1)OC(F)(F)O2)C1CC1 [Example 393]
+ (NAUC<40% of positive control) | COc1cc(C)cc(-c2nn(CC(=O)N(c3ccc4c(c3)OC(F)(F)O4)C3CC3)c(=O)c3nc[nH]c23)c1 [Example 395]
+ (NAUC<40% of positive control) | COc1cc(OC(F)(F)F)cc(-c2nn(CC(=O)N(c3ccc4c(c3)OC(F)(F)O4)C3CC3)c(=O)c3nc[nH]c23)c1 [Example 397]
++ (NAUC 70-40% of positive control) | O=C(Cn1nc(-c2cc(Cl)cc(C(F)(F)F)c2)c2[nH]cnc2c1=O)N(c1ccc2c(c1)OC(F)(F)O2)C1CC1 [Example 401]
++ (NAUC 70-40% of positive control) | Cc1cc(-c2nn(CC(=O)N(c3ccc4c(c3)OC(F)(F)O4)C3CC3)c(=O)c3nc[nH]c23)cc(C(F)(F)F)c1 [Example 402]
++ (NAUC 70-40% of positive control) | N#Cc1cc(-c2nn(CC(=O)N(c3ccc4c(c3)OC(F)(F)O4)C3CC3)c(=O)c3nc[nH]c23)cc(C(F)(F)F)c1 [Example 404]
+ (NAUC<40% of positive control) | O=C(Cn1nc(-c2cc(O)cc(OC(F)(F)F)c2)c2[nH]cnc2c1=O)N(c1ccc2c(c1)OC(F)(F)O2)C1CC1 [Example 407]
++ (NAUC 70-40% of positive control) | N#Cc1cc(OC(F)(F)F)cc(-c2nn(CC(=O)N(c3ccc4c(c3)OC(F)(F)O4)C3CC3)c(=O)c3nc[nH]c23)c1 [Example 408]
++ (NAUC 70-40% of positive control) | COc1cc(C#N)cc(-c2nn(CC(=O)N(c3ccc4c(c3)OC(F)(F)O4)C3CC3)c(=O)c3nc[nH]c23)c1 [Example 409]
+++ (NAUC>70% of positive control) | N#Cc1cc(-c2nn(CC(=O)N(c3ccc4c(c3)OC(F)(F)O4)C3CC3)c(=O)c3nc[nH]c23)ccc1Cl [Example 445]
+ (NAUC<40% of positive control) | O=C(Cn1nc(-c2ccc(C(F)(F)F)c(Cl)c2)c2[nH]cnc2c1=O)N(c1ccc2c(c1)OC(F)(F)O2)C1CC1 [Example 448]
++ (NAUC 70-40% of positive control) | N#Cc1cc(-c2nn(CC(=O)N(c3ccc4c(c3)OC(F)(F)O4)C3CC3)c(=O)c3nc[nH]c23)ccc1OC(F)(F)F [Example 483]
